Activity calls are given as the source filed them. The rule behind the calls is not given here.
Columns and labels:
[1] = test system: S. cerevisiae alpha-synuclein toxicity rescue, OD600 growth, 24 h; assay: rescue of alpha-synuclein yeast toxicity, dose response, S. cerevisiae, plate reader, cherry-pick (AID 602273)
[2] = as above; details: S. cerevisiae alpha-synuclein toxicity rescue, OD600 growth, 24 h; at 26 µM (top of the series)

Structure (SMILES)	AC40 [1]	growth rescue activity [2]
O=C1C=C(c2ccccc2)CC(/C=C/c2ccccc2)C1 (centres undefined)	> 12 µM (inactive)	–
O=c1c2sccc2nc(SCc2ccc([N+](=O)[O-])cc2)n1Cc1ccccn1	> 26 µM (inactive)	–
CC(C)c1ccc(C2NC(=O)c3ccccc3O2)cc1 (centres undefined)	12.1 µM	–
Fc1cc(NCc2ccccc2)nc(NCc2ccccc2)n1	> 26 µM (inactive)	–
CCOC(=O)c1nnsc1Nc1ccc(C)c(C)c1	> 26 µM (inactive)	–
CSc1sc(C(=O)Nc2ccc(F)cc2F)c2c1C=CCC2	> 26 µM (inactive)	–
COc1cccc(CNc2ccc(Br)cn2)c1O	> 26 µM (inactive)	–
CC1(C)CC(=O)C=C(NC2=CC3OC(c4ccccc4)OCC3OC2=O)C1 (centres undefined)	> 26 µM (inactive)	–
O=[N+]([O-])c1cccc(-c2ncc3ccccn23)c1	> 26 µM (inactive)	–
Cc1[nH]c2ccccc2c1/C=C(\C#N)C(=O)NCC1CCCO1 (centres undefined)	–	4.73% (inactive)
CN(Cc1ccccc1)C(=O)c1cc(-c2ccc(Br)cc2)on1	–	-17.2% (inactive)
Cc1c(/C=N/NC(=O)c2ccc(Br)o2)cnn1C	–	-2.43% (inactive)
Cc1ccc(O)c(NC(=O)c2onc(C)c2Cl)c1	–	6.44% (inactive)
CCN(CC)CCn1c2ccccc2c2nc3ccc([N+](=O)[O-])cc3cc21	–	0.822% (inactive)
CC1CC(C)(C)N(C(=O)NC2CCCCC2)c2ccccc21 (centres undefined)	–	12.6% (inactive)
CC(=O)N1N=C(c2ccccc2)CC1c1ccccc1[N+](=O)[O-] (centres undefined)	–	2.51% (inactive)
COc1ccc(CCNc2oc(-c3ccccc3OC)nc2C#N)cc1	–	1.38% (inactive)
CC1(C)CC(=O)C2=C(C1)Nc1cc3c(cc1C2c1ccc2c(c1)OCO2)OCO3 (centres undefined)	–	11.9% (inactive)
COc1ccc(C(=O)n2nc(C)cc2Nc2ccccc2)cc1	–	2.84% (inactive)
CN1CCN(Cc2c(O)ccc3cc(Br)ccc23)CC1	> 26 µM (inactive)	–
Cc1[nH]n(-c2ccccc2)c(=O)c1C=NCCc1ccccc1	–	5.9% (inactive)
COc1ccc(/C=C2/SC(=O)N(CCNC(=O)C3COc4ccccc4O3)C2=O)cc1 (centres undefined)	–	5.56% (inactive)
CC(OC(=O)/C=C/c1ccc2ccccc2n1)C(=O)NCc1ccccc1 (centres undefined)	–	3.64% (inactive)

Structure (SMILES)	AC40 [1]	growth rescue activity [2]
CNc1nc(Nc2ccc(C)c(Cl)c2)nc(N)c1[N+](=O)[O-]	–	-8.67% (inactive)
O=C(NCCN1Cc2ccccc2C1=O)c1cccs1	–	-6.05% (inactive)
CCOC(=O)Nc1ccc(C(=O)Oc2ccccc2)c(O)c1	–	-4.86% (inactive)
O=C(O)CC1=C(Nc2ccccc2)C(=O)N(c2ccccc2)C1c1ccc(Cl)cc1 (centres undefined)	–	7.05% (inactive)
Oc1[nH]c(N=C2N=c3ccccc3=N2)c2ccccc12	–	-26.4% (inactive)
C/C(Cn1cnc([N+](=O)[O-])n1)=N\NC(=O)c1ccccc1F	–	-2.85% (inactive)
CC(C)(C)c1cc(NC(=O)CCSc2nnc3ccccn23)cc(C(C)(C)C)c1	–	3.55% (inactive)
COc1ccc(NC(=O)COC(=O)/C=C/C(=O)OCC(=O)Nc2ccc(OC)c(Cl)c2)cc1Cl	–	3.29% (inactive)
CN(Cc1nnc(-c2ccc(F)cc2)o1)c1ccccc1	–	8.17% (inactive)
Cc1ccc(CN2CCN(CC(C)C)C(CCO)C2)s1 (centres undefined)	–	-1.18% (inactive)
O=C(CC12CCC(CC1)C2)NCc1ccc2c(c1)OCO2	–	2.83% (inactive)
CCN1C(=O)CC(N2CCN(c3ccc(C(=O)c4ccccc4)cc3)CC2)C1=O (centres undefined)	–	-0.853% (inactive)
C=CCN1C(=O)C(Cc2ccc(OCC)cc2)SC1=Nc1ccc(C(=O)O)cc1 (centres undefined)	–	18.5% (inactive)
CC(C)(CNC(=O)/C=C/c1ccc(F)cc1)CNC(=O)/C=C/c1ccc(F)cc1	–	0.36% (inactive)
O=C(O)CSc1nc2ccccc2nc1Cc1ccccc1F	–	5.3% (inactive)
Clc1ccc(SCc2csc(N3CCOCC3)n2)cc1	> 26 µM (inactive)	–
O=c1[nH]c2ccccc2n1CCC1CCCCC1	–	8.15% (inactive)
c1ccc2c(Nc3nnc(-c4ccncc4)s3)cccc2c1	–	-9.03% (inactive)
Cc1cc(-c2nc3ncccc3o2)ccc1NC(=S)NC(=O)C(C)C	> 26 µM (inactive)	–
Cc1cc(C)nc(S/C=C/C(=O)c2ccccc2F)n1	–	1.06% (inactive)
Cc1ccc(C(=O)CNc2ccc(Cl)cc2)cc1	–	5.52% (inactive)
CCOc1cccc(/C=C/c2ccc3cccc(O)c3n2)c1OC	–	-2.49% (inactive)
COc1cccc(NC(=S)NC(=O)c2c(Cl)c(C)nn2C)c1	> 26 µM (inactive)	–

Structure (SMILES)	AC40 [1]	growth rescue activity [2]
CCOC(=O)CC(=O)CSCC(=O)Nc1ccc(C)cc1	–	-1.13% (inactive)
O=C1S/C(=C\c2ccc(N3CCOCC3)o2)C(=O)N1Cc1c(F)cccc1Cl	–	-0.523% (inactive)
O=C(NC1CCSc2ccccc21)c1ccccc1Cl (centres undefined)	–	-4.11% (inactive)
COc1cccc(-c2nnc(SCc3nc4ccccc4[nH]3)n2N)c1	–	1.34% (inactive)
O=C(CSc1nnc(-c2c[nH]c3ccccc23)o1)c1ccccc1	> 26 µM (inactive)	–
O=C(Nc1ccccc1C(=O)OCC(=O)c1c[nH]c2ccccc12)c1ccco1	–	5.29% (inactive)
O=c1[nH]c2ccccc2c2cn(-c3ccccc3)nc12	23.4 µM	–
CC(=O)c1cccc(N(CC(=O)Nc2ccc(F)cc2F)S(C)(=O)=O)c1	–	2.96% (inactive)
CCOC(=O)C1(Cc2ccc(OC)cc2)CCN(C(=O)c2cc3ccccc3[nH]2)CC1	–	1.19% (inactive)
COC(=O)C1CCN(C(=O)COC(=O)c2ccc(OC)c(S(=O)(=O)N3CCCc4ccccc43)c2)CC1	–	-1.07% (inactive)
C/C(=N\NC(=O)c1ccoc1C)c1cccc2ccccc12	–	8.58% (inactive)
CCCCC(=O)OCC(=O)c1[nH]c(C)c(C(=O)OCC)c1C	–	2.65% (inactive)
CC(=O)Nc1cccc(NC(=O)CSc2ncc(C(=O)Nc3ccccc3)c(=O)n2C)c1	–	-9.48% (inactive)
Cc1ccc(-n2cc(CNCCN3CCOC3=O)c(-c3cccc(C)c3)n2)cc1	–	0.352% (inactive)
CCOC(=O)c1c(C)c(C(=O)Nc2ccc3c(c2)OCO3)c(C)n1C	–	2.62% (inactive)
Cn1c(=O)c(/C=C/c2ccc(F)cc2)nc2ccccc21	–	8.65% (inactive)
CCC1(C)N=C(N)Nc2nc3cc(C)c(C)cc3n21 (centres undefined)	–	-2.62% (inactive)
Cc1ccc(N2C(=O)SC(N(CC(=O)O)c3ccc(C)cc3)C2=O)cc1 (centres undefined)	–	-2.3% (inactive)
CC(=O)c1ccc(NC(=O)CCCN2C(=O)/C(=C/C(C)=C/c3ccccc3)SC2=S)cc1	–	-5.11% (inactive)
COc1ccc(C(c2c(O)ccc3ccccc23)N2CCOCC2)c(OC)c1 (centres undefined)	–	-24.5% (inactive)
O=c1[nH]n(CC2COC3(CCCCC3)O2)c(=O)c2ccccc12 (centres undefined)	–	-3.22% (inactive)
Cc1ccc2oc(C(=O)N3CCC(O)(c4cccc(C(F)(F)F)c4)CC3)c(C)c2c1	> 26 µM (inactive)	–
Cc1ccccc1CSc1nsc(N)n1	14.5 µM	–
